For this assay, the system named is HBV (2.2.15 cells). Put plainly: Antiviral activity in 2.2.15 cells: reduction of viral product accumulation (qPCR of lysates, HBsAg or HBeAg ELISA). Particulars: Hepatitis B virus, 120 h, day 5 post treatment, 50% reduction of viral product accumulation in lysates or supernatants vs no drug controls, readout (qPCR, HBsAg, HBeAg) not specified. In kind it is cell-based, hepatitis B virus (HBV). The method, then:
2.2.15 cells are passaged upon attaining confluency in DMEM/F12 media in the presence of 10% FBS, Penn/Strep, and 250 ug/mL G418. Novel compounds are 5 fold serially diluted in DMSO and added to 96 well plates containing 35,000 cells/well at a 1:200 dilution so that the final concentration of DMSO is 0.5%. On day 5, post treatment cell lysates and supernatants are harvested for analysis.
Cells are lysed using Agilent Sidestep Lysis buffer, diluted 1:100 and quantified via quantitative real time PCR. Commercially available ELISA kits are used to quantitate the viral proteins HBsAg (Alpco) or HBeAg (US Biological) by following the manufacturer's recommended protocol after diluting samples to match the linear range of their respective assays. Irrespective of readout, compound concentrations that reduce viral product accumulation in the cell lysates or supernatants by 50% relative to no drug controls (EC50) are reported; EC50 ranges are as follows: A<0.1 μM; B 0.1-1 μM; C>1 μM.

As to `COCCCOc1cc2c(cc1-c1ccc3c(c1)OCCO3)-c1cc(=O)c(C(=O)O)cn1[C@H](C(C)(C)C)C2` [Example 31, (S)-6-(tert-butyl)-10-(2,3-dihydrobenzo[b][1,4]dioxin-6-yl)-9-(3-methoxypropoxy)-2-oxo-6,7-dihydro-2H-pyrido[2,1-a]isoquinoline-3-carboxylic Acid], the EC50 is less than 100 nM.
The value for `COCCCOc1cc2c(cc1-c1cn(C)nc1C)-c1cc(=O)c(C(=O)O)cn1[C@H](C(C)(C)C)C2` [Example 32, (S)-6-(tert-butyl)-10-(1,3-dimethyl-1H-pyrazol-4-yl)-9-(3-methoxypropoxy)-2-oxo-6,7-dihydro-2H-pyrido[2,1-a]isoquinoline-3-carboxylic Acid] was less than 100 nM.
Then `COCCCOc1cc2c(cc1-c1c(C)nn(C)c1C)-c1cc(=O)c(C(=O)O)cn1[C@H](C(C)(C)C)C2` [Example 33, (S)-6-(tert-butyl)-9-(3-methoxypropoxy)-2-oxo-10-(1,3,5-trimethyl-1H-pyrazol-4-yl)-6,7-dihydro-2H-pyrido[2,1-a]isoquinoline-3-carboxylic Acid], with less than 100 nM.
The value for `CCn1cc(-c2cc3c(cc2OCCCOC)C[C@@H](C(C)(C)C)n2cc(C(=O)O)c(=O)cc2-3)cn1` [Example 34, (S)-6-(tert-butyl)-10-(1-ethyl-1H-pyrazol-4-yl)-9-(3-methoxypropoxy)-2-oxo-6,7-dihydro-2H-pyrido[2,1-a]isoquinoline-3-carboxylic Acid] was less than 100 nM; that for `COCCCOc1cc2c(cc1-c1nnnn1C)-c1cc(=O)c(C(=O)O)cn1[C@H](C(C)(C)C)C2` [Example 35, (S)-6-(tert-butyl)-9-(3-methoxypropoxy)-10-(1-methyl-1H-tetrazol-5-yl)-2-oxo-6,7-dihydro-2H-pyrido[2,1-a]isoquinoline-3-carboxylic Acid] was less than 100 nM.
`COCCCOc1cc2c(cc1-c1nnco1)-c1cc(=O)c(C(=O)O)cn1[C@H](C(C)(C)C)C2` [Example 36, (S)-6-(tert-butyl)-9-(3-methoxypropoxy)-10-(1,3,4-oxadiazol-2-yl)-2-oxo-6,7-dihydro-2H-pyrido[2,1-a]isoquinoline-3-carboxylic Acid] yielded an EC50 of less than 100 nM.
The value for `COCCCOc1cc2c(cc1-c1ccc(OC(F)(F)F)cc1)-c1cc(=O)c(C(=O)O)cn1[C@H](C(C)(C)C)C2` [Example 37, (S)-6-(tert-butyl)-9-(3-methoxypropoxy)-2-oxo-10-(4-(trifluoromethoxy)phenyl)-6,7-dihydro-2H-pyrido[2,1-a]isoquinoline-3-carboxylic Acid] was greater than 1000 nM; that for `COCCCOc1cc2c(cc1-c1ccc(OC(C)C)cc1)-c1cc(=O)c(C(=O)O)cn1[C@H](C(C)(C)C)C2` [Example 38, (S)-6-(tert-butyl)-10-(4-isopropoxyphenyl)-9-(3-methoxypropoxy)-2-oxo-6,7-dihydro-2H-pyrido[2,1-a]isoquinoline-3-carboxylic Acid] was greater than 1000 nM; that for `COCCCOc1cc2c(cc1-c1ccc3c(c1)OCCC3)-c1cc(=O)c(C(=O)O)cn1[C@H](C(C)(C)C)C2` [Example 39, (S)-6-(tert-butyl)-10-(chroman-7-yl)-9-(3-methoxypropoxy)-2-oxo-6,7-dihydro-2H-pyrido[2,1-a]isoquinoline-3-carboxylic Acid] was greater than 1000 nM.
The value for `COCCCOc1cc2c(cc1-c1ccc(OC3CC3)cc1)-c1cc(=O)c(C(=O)O)cn1[C@H](C(C)(C)C)C2` [Example 40, (S)-6-(tert-butyl)-10-(4-cyclopropoxyphenyl)-9-(3-methoxypropoxy)-2-oxo-6,7-dihydro-2H-pyrido[2,1-a]isoquinoline-3-carboxylic Acid] was greater than 1000 nM.
The value for `COCCCOc1cc2c(cc1C1CCCCO1)-c1cc(=O)c(C(=O)O)cn1[C@H](C(C)(C)C)C2` (stereo partly drawn) [Example 41, (6S)-6-(tert-butyl)-9-(3-methoxypropoxy)-2-oxo-10-(tetrahydro-2H-pyran-2-yl)-6,7-dihydro-2H-pyrido[2,1-a]isoquinoline-3-carboxylic Acid] was less than 100 nM; that for `COCCCOc1cc2c(cc1C1=COCCC1)-c1cc(=O)c(C(=O)O)cn1[C@H](C(C)(C)C)C2` [Example 42, (S)-6-(tert-butyl)-10-(3,4-dihydro-2H-pyran-5-yl)-9-(3-methoxypropoxy)-2-oxo-6,7-dihydro-2H-pyrido[2,1-a]isoquinoline-3-carboxylic Acid] was less than 100 nM; that for `CCc1nnc(-c2cc3c(cc2OCCCOC)C[C@@H](C(C)(C)C)n2cc(C(=O)O)c(=O)cc2-3)o1` [Example 43, (S)-6-(tert-butyl)-10-(5-ethyl-1,3,4-oxadiazol-2-yl)-9-(3-methoxypropoxy)-2-oxo-6,7-dihydro-2H-pyrido[2,1-a]isoquinoline-3-carboxylic Acid] was less than 100 nM.
`COCCCOc1cc2c(cc1-c1cnc(OC)nc1)-c1cc(=O)c(C(=O)O)cn1[C@H](C(C)(C)C)C2` [Example 44, (S)-6-(tert-butyl)-9-(3-methoxypropoxy)-10-(2-methoxypyrimidin-5-yl)-2-oxo-6,7-dihydro-2H-pyrido[2,1-a]isoquinoline-3-carboxylic Acid]: the EC50 is less than 100 nM.
Turning to `COCCCOc1cc2c(cc1-c1cc(OC)nnc1OC)-c1cc(=O)c(C(=O)O)cn1[C@H](C(C)(C)C)C2` [Example 45, (S)-6-(tert-butyl)-10-(3,6-dimethoxypyridazin-4-yl)-9-(3-methoxypropoxy)-2-oxo-6,7-dihydro-2H-pyrido[2,1-a]isoquinoline-3-carboxylic Acid], the EC50 is less than 100 nM.
The value for `COCCCOc1cc2c(cc1-c1ccc3oncc3c1)-c1cc(=O)c(C(=O)O)cn1[C@H](C(C)(C)C)C2` [Example 47, (S)-10-(benzo[d]isoxazol-5-yl)-6-(tert-butyl)-9-(3-methoxypropoxy)-2-oxo-6,7-dihydro-2H-pyrido[2,1-a]isoquinoline-3-carboxylic Acid] was greater than 1000 nM; that for `COCCCOc1cc2c(cc1-c1cnnn1C)-c1cc(=O)c(C(=O)O)cn1[C@H](C(C)(C)C)C2` [Example 48, (S)-6-(tert-butyl)-9-(3-methoxypropoxy)-10-(1-methyl-1H-1,2,3-triazol-5-yl)-2-oxo-6,7-dihydro-2H-pyrido[2,1-a]isoquinoline-3-carboxylic Acid] was less than 100 nM.
The value for `COCCCOc1cc2c(cc1-c1nnc(C)o1)-c1cc(=O)c(C(=O)O)cn1[C@H](C(C)(C)C)C2` [Example 49, (S)-6-(tert-butyl)-9-(3-methoxypropoxy)-10-(5-methyl-1,3,4-oxadiazol-2-yl)-2-oxo-6,7-dihydro-2H-pyrido[2,1-a]isoquinoline-3-carboxylic Acid] was less than 100 nM; that for `COCCCOc1cc2c(cc1N1CCCC1)-c1cc(=O)c(C(=O)O)cn1[C@@H](C(C)(C)C)C2` [Example 50, (R)-6-(tert-butyl)-9-(3-methoxypropoxy)-2-oxo-10-(pyrrolidin-1-yl)-6,7-dihydro-2H-pyrido[2,1-a]isoquinoline-3-carboxylic Acid] was less than 100 nM; that for `COCCCOc1cc2c(cc1-n1cccn1)-c1cc(=O)c(C(=O)O)cn1[C@@H](C(C)(C)C)C2` [Example 51, (R)-6-(tert-butyl)-9-(3-methoxypropoxy)-2-oxo-10-(1H-pyrazol-1-yl)-6,7-dihydro-2H-pyrido[2,1-a]isoquinoline-3-carboxylic Acid] was less than 100 nM.
Then `COCCCOc1cc2c(cc1-n1ccc3ccccc31)-c1cc(=O)c(C(=O)O)cn1[C@H](C(C)(C)C)C2` [Example 52, (S)-6-(tert-butyl)-10-(1H-indol-1-yl)-9-(3-methoxypropoxy)-2-oxo-6,7-dihydro-2H-pyrido[2,1-a]isoquinoline-3-carboxylic Acid], with less than 100 nM; and `COCCCOc1cc2c(cc1-c1nnc(C(F)(F)F)o1)-c1cc(=O)c(C(=O)O)cn1[C@H](C(C)(C)C)C2` [Example 53, (S)-6-(tert-butyl)-9-(3-methoxypropoxy)-2-oxo-10-(5-(trifluoromethyl)-1,3,4-oxadiazol-2-yl)-6,7-dihydro-2H-pyrido[2,1-a]isoquinoline-3-carboxylic Acid], with less than 100 nM.
In turn, `COCCCOc1cc2c(cc1N1CCC(F)(F)C1)-c1cc(=O)c(C(=O)O)cn1[C@H](C(C)(C)C)C2` [Example 54, (S)-6-(tert-butyl)-10-(3,3-difluoropyrrolidin-1-yl)-9-(3-methoxypropoxy)-2-oxo-6,7-dihydro-2H-pyrido[2,1-a]isoquinoline-3-carboxylic Acid] had a concentration giving a half-maximal response (EC50) of 100 to 1000 nM.
As for `COCCCOc1cc2c(cc1N1CCC1)-c1cc(=O)c(C(=O)O)cn1[C@H](C(C)(C)C)C2` [Example 55, (S)-10-(azetidin-1-yl)-6-(tert-butyl)-9-(3-methoxypropoxy)-2-oxo-6,7-dihydro-2H-pyrido[2,1-a]isoquinoline-3-carboxylic Acid], the EC50 is less than 100 nM.
Then `COCCCOc1cc2c(cc1-c1ccc(OC(F)F)cc1)-c1cc(=O)c(C(=O)O)cn1[C@H](C(C)(C)C)C2` [Example 56, (S)-6-(tert-butyl)-10-(4-(difluoromethoxy)phenyl)-9-(3-methoxypropoxy)-2-oxo-6,7-dihydro-2H-pyrido[2,1-a]isoquinoline-3-carboxylic Acid], with less than 100 nM; and `COCCCOc1cc2c(cc1-c1cccc(OC(F)(F)F)c1)-c1cc(=O)c(C(=O)O)cn1[C@H](C(C)(C)C)C2` [Example 57, (S)-6-(tert-butyl)-9-(3-methoxypropoxy)-2-oxo-10-(3-(trifluoromethoxy)phenyl)-6,7-dihydro-2H-pyrido[2,1-a]isoquinoline-3-carboxylic Acid], with greater than 1000 nM.

The record behind these values is US11058678B2 (Enanta Pharmaceuticals, Inc., priority 2018, dated 2021).
